Patent publication US6593365B1, “Diflunisal esters and related compounds” (The University of Queensland, priority 1997, dated 2003)
pEC50: −log10 of the molar value. Where two headings read alike, the source gives them in different places. Marks after values point to notes of the source that are not given here.

Assays:
[1] = Intrinsic (maximum) solubility in water at pH 1.5; assay type: physicochemical; conditions: water at pH 1.5, 25 1° C.; U = Undetectable
Procedure: The pH conditions were chosen to ensure that the solubility of the unionised species was estimated. […] Lea & Febiger/Philadelphia. […] […] The solvent (9.9 mL) was then added to the test tube. […] The test tube was sonicated for 15 minutes and centrifuged for 10 minutes (3000 g at 25° C.). An aliquot was filtered (Minisart 0.45 μm filter, Satorius) and diluted with HPLC mobile phase, then assayed. The tube was stored carefully in a 25° C. water bath after sampling and the remaining suspension was again sonicated and the process repeated 7 times at four hourly intervals. In these assays, standard curves were prepared by directly dissolving the esters in mobile phase. Concentrations for standard curves ranged from 1-50 μg/mL for all compounds. Furthermore, a manual injector (Waters Model U6K) was used (20 μL sample loop) which ensured that 20 μL was consistently injected onto the column and precluded the need for an internal standard.

[2] = Maximum solubility in 2% BSA Krebs-Henseleit buffer (pH 7.4); assay type: physicochemical; conditions: 25 1° C.
Description: The intrinsic solubility of diflunisal esters is extremely low (TABLE 2). The more lipophilic the analogue, the higher the solubility of solute under these conditions.

[3] = system: human platelet rich plasma; assay: Platelet aggregation induced by arachidonic acid; assay type: cell-based; conditions: compound 600 µM, 37° C., arachidonic acid 200 µM
Procedure: Platelet aggregation studies were carried out using a single channel Lumiaggregometer (Chrono-Log Company, Haverton, Pa.) at 37° C. using human platelet-rich and platelet-poor plasma. Platelet-rich plasma (PRP) with a platelet concentration of […] (measured with a Coulter counter) was prepared by centrifuging 3.8% citrated […] (1:9) at 1,500 rpm using a (Beckman) benchtop centrifuge at room temperature for 15 minutes. Platelet-poor plasma (PPP) was prepared by further centrifuging residual blood from platelet-rich plasma at 3,000 rpm for 30 minutes. Platelet-poor plasma was also confirmed b y Coulter counting for platelet content.
Platelet aggregation studies were preceded by pipetting 0.4 mL platelet-rich plasma into a stirred aggregometer tube and calibrate to 90% of recorder. Platelet-poor plasma was set to calibrate at 10% of recorder. Platelet aggregation was initiated by the addition of a arachidonic acid (Sigma) or ADP (Sigma).
10 mM solutions of each compound (TABLE 6) were prepared in 1 mL of normal saline solution (containing 4% BSA) before use. An aliquot (400 μL) of platelet-rich plasma was pipetted into a stirred aggregometer tube at 37° C. and 30 μL of test sample added simultaneously. This mixture was preincubated for varying period (3 to 45 minutes), then arachidonic acid (AA) was added (final conc.=200 μM) to initiate platelet aggregation. If no aggregation occurred, 20 μM ADP was added to confirm the vitality of the platelets (if the platelets are vital, ADP will induce this AA-test sample-plasma mixture to aggregate). This procedure is necessary to investigate whether the non-aggregation phenomenon is due to drug inhibition or simply due to inviable platelets (unable to respond to AA). The degree of aggregation was measure by calculating the area under the turbidimetric response curve (AUC).

[4] = In vitro non-enzymatic hydrolysis in Krebs-Henseleit buffer; assay type: physicochemical; conditions: pH 7.4, 25° C., n=5
Procedure: These experiments were carried out both in Krebs-Henseleit buffer containing either no protein or 2% w/v BSA (bovine serum albumin, fraction V, Sigma) at pH 7.4 and 25±1° C.
Solutions of the derivatives in Krebs buffer (10 mL) was prepared in siliconised glass tubes. Each solution was sonicated for 5 minutes and centrifuged for 5 minutes (3000 g) at 25° C. to ensure maximum dissolution and to sediment any undissolved precipitate. About 7.5 mL of the supernatant was then transferred to a clean siliconised test tube and a 100 μL aliquot was removed and assayed. […] The rate of non-enzymatic hydrolysis (k) for each derivative was then estimated using the following equation: […]
where C1 is the concentration of the ester at any time (t), and C0 is the concentration of the ester at time zero. The half-life (t½) was determined using the formula: […]

[5] = system: OH. generated from Fenton's reaction; assay: Luminol-dependent chemiluminescence induced by Fenton's reagent; assay type: biochemical; set-up: unit of the concentration uncertain; conditions: F: CL induced by Fenton's reagent, n=3
Procedure: CL was measured with a luminometer (Model 1250; LKB Wallac, Finland) and recorded in millivolts (Cheung et al., 1984, supra).
Fenton's reagent (FeSO4 and H2O2) was used as a standard reaction mixture for the generation of OH. (Lai and Piette, 1979, Tetrahedron Lett. 775-778):
Fe^+++H2O2→Fe^++++OH.+OH (1)
The initial reaction mixture consisted of 20 μL of 3.8 mM FeSO4.7H2O, 20 μL of 5 mg/mL luminol (Sigma), and 2 mL of 1 mM phosphate buffer in a 3 mL polystyrene cuvette. Twenty microlitres of 320 mM H2O2 was added to initiate the Fenton's reaction.
A known concentration of the ethanolic (≲1%) aspirin analogue or diflunisal ester's stock solution was added to the 1 mM phosphate buffer to prepare solutions with a final concentration of 50 μM, 250 μM or 500 μM. Twenty microlitres of these test samples was added onto the cuvette which contained the initial reaction mixture. H2O2 was added to induce CL reaction. The luminol-dependent CL response was recorded in mV by a potentiometric recorder.
(§1) CL measurements were always done in triplicate and Student's t-test used to assess the statistical significance of the difference between measurements.

[6] = system: superoxide generated from xanthine oxidase plus xanthine reaction; assay: Xanthine oxidase plus xanthine-induced chemiluminescence; assay type: biochemical; set-up: dose or concentration left out as unconfirmed; conditions: X: CL induced by xanthine oxidase plus xanthine
Procedure: To clarify the role of aspirin analogues and diflunisal esters in free radicals scavenging, the Fenton's reagent was replaced by an artificial superoxide generating system in the CL inhibition studies. This cell-free system consisted of 100 μg/mL of xanthine oxidase (Sigma) plus 0.5 μM xanthine (Sigma) (Rosen and Klebanoff, 1976, J Clin Invest 58 50-60; Cheson et al., 1976, J Clin Invest 58 789-796).
as §1

[7] = system: in-situ perfused rat liver; assay: In-situ rat liver perfusions, hepatic extraction (Example 4); assay type: in vitro ADME; conditions: protein-free Krebs-Henseleit buffer as perfusate; hepatic extraction=1- hepatic availability (F)
Procedure: The hepatic availability (F) for the O-acyl esters of SA and DF was determined using a once through in-situ perfused rat liver preparation (Mellick and Roberts, 1996, J Pharm Pharmacol 48:738-743). Liver was perfused with protein-free Krebs-Henseleit buffer at 30 mL/min for aspirin analogues and with Krebs-Henseleit buffer containing 2% BSA for diflunisal esters studies. Since the solubilities of the diflunisal esters in protein-free media were very low, 2% BSA were used to help to solubilize these compounds. Briefly, 50 μL of a saturated solution of the particular O-acyl SA or DF in Krebs-Henseleit buffer was injected as a bolus into the portal vein cannula. Perfusate outflow samples have collected via a fraction collector over 3 min. 100 μL of these samples was assayed by HPLC to determine the residual concentration of presented ester and the quantity of phenolic metabolite (SA or DF) collected from the perfused liver. The HPLC assay was a modification of the method used by Owen et al. (1987, J Chrom B Biomed Appl 416 293-302) and Rumble et al. (1981, J Chrom 225 252-260).
The hepatic availability (F) was calculated from the ratio of the area under the first moment curve, i.e., outflow concentration time-time profile to the area under the curve for the salicylate phenolic esters, with the assistance of the Moments Calculator 2.2 program for Macintosh computer developed by Robert Purves (1994, J Pharm Sci 83:202-205).

[8] = system: ischaemic/reperfusion rat livers; assay: Ischaemic/reperfusion injury in rat livers (LDH release, bile production); set-up: species or system Female Sprague-Dawley rats; conditions: Rattus norvegicus
Procedure: Female Sprague-Dawley rats (220-250 g) were anaesthetised by interperitoneal injection of pentobarbital sodium (60 mg/kg, Boehringer Ingelhein). […] The bile duct was cannulated with a polyethylene tubing (PE-10, I.D. 0.28 mm; Clay Adams, New Jersey) and bile was collected into pre-weighed microcentrifuge tubes at 70 min intervals (in the middle of experiment and the end of experiment). The portal vein was then cannulated using a 16 G intravenous catheter and the liver was perfused via this cannula with 2% BSA Krebs-Henseleit bicarbonate buffer (pH 7.4) and oxygenated using a membrane oxygenator comprising of silastic tubing and ventilated with carbogen (95% O2/5% CO2). The perfusion system used was recirculating and employed a peristaltic pump (Cole-Parmer, Illinois).
Following a 10 min pre-ischaemia perfusion, the perfusion flow was stopped for 30 min at 37° C. with the liver being kept moist. At the end of this ischaemic phase, a known concentration of the aspirin analogue or diflunisal ester's solution (in 2% BSA Krebs-Henseleit buffer) was added into the perfusate prior to the perfusion being resumed for another 100 min. Outflow fractions were collected up to 140 min. A biochemistry autoanalyzer (Hitachi, model 747; Tokyo, Japan) was employed to determine the level of enzyme (LDH) release.
The degree of ischaemic/reperfusion injury was measured by calculating the area under the LDH release ([…]) versus time curve (AUC). […] The efficacy of each compound is expressed in terms of ED50 which represents the molar dose for 50% reduction of LDH release compared to the control. The comparison of bile production between the first stage of experiment (the first 70 min) and the second stage of experiment (the last 70 min) is also used as index of liver function during an experiment.

| SMILES | Maximum solubility [1] [mM] | Maximum solubility [2] [mM] | Maximum solubility ([2]; mean standard deviation (n=3)) [mg/mL] | Platelet Aggregation (% of control) ([3]; preincubation 3 minutes) | Platelet Aggregation (% of control) ([3]; preincubation 5 minutes) | Platelet Aggregation (% of control) ([3]; preincubation 8 minutes) | Platelet Aggregation (% of control) ([3]; preincubation 10 minutes) | Platelet Aggregation (% of control) ([3]; preincubation 12 minutes) | Platelet Aggregation (% of control) ([3]; preincubation 15 minutes) | Platelet Aggregation (% of control) ([3]; preincubation 20 minutes) | Platelet Aggregation (% of control) ([3]; preincubation 25 minutes) | Platelet Aggregation (% of control) ([3]; preincubation 45 minutes) | Hydrolysis rate constant (k) ([4]; Krebs-Henseleit buffer 0% BSA, U = Undetectable) [hour^1] | Hydrolysis rate constant (k) ([4]; Krebs-Henseleit buffer 2% BSA) [hour^1] | CL inhibition (%) ([5]; 2.5 (unit uncertain) compound) | CL inhibition (%) ([5]; 5 (unit uncertain) compound) | CL inhibition (%) [6] [%] | Hepatic extraction [7] | EC50 ([8]; C is the ED50 molar dose, read-out: log 1/C (converted)) [µM] | pEC50 ([8]; molar dose for 50% reduction of LDH release compared to control, 30 min ischaemia, 100 min reperfusion, read-out: ED50 (the source's name)) |
| --- | --- | --- | --- | --- | --- | --- | --- | --- | --- | --- | --- | --- | --- | --- | --- | --- | --- | --- | --- | --- |
| CCC(=O)Oc1ccc(-c2ccc(F)cc2F)cc1C(=O)O [Compound C3D, n-propionyldiflunisal] | 0.01 | 10.29 | 3.15 ± 0.02 | 96.5 ± 3.1 % of control | 89.3 ± 0.4 % of control | 67.3 ± 0.1 % of control | 49.7 ± 1.1 % of control | 19.3 ± 0.5 % of control | 0 % of control | 0 % of control | 0 % of control | 0 % of control | – | – | – | – | – | – | – | – |
| CCC(=O)Oc1ccccc1C(=O)O [Compound C3SA, n-propionylsalicylic acid] | 6.3 | – | – | 0 % of control | 0 % of control | 0 % of control | 0 % of control | 0 % of control | 0 % of control | 0 % of control | 0 % of control | 0 % of control | 0.0147 ± 0.0025 | 0.0102 ± 0.0031 | – | – | – | – | – | – |
| O=C(O)c1ccccc1O [SA, 2-hydroxybenzoic acid, reference compound] | – | – | – | – | – | – | – | – | – | – | – | – | – | – | 52.9 ± 2.1 | 99.0 ± 1.0 | 0.2 ± 0.0 | 0.05^c | 72.4 | 4.14 |
